These results are taken from US20230404887A1, “COMPOSITIONS TO LIMIT OR ELIMINATE THE PERCEPTION OF SWEAT MALODOR” (Firmenich SA, priority 2020, published 2023).

A short description of experiment [1]: Expert perfumer evaluation of malodor reduction, dynamic olfactometer, against 3M3SH. Set-up: species or system human. The note with it: for EFFECTIVE CONCENTRATION: MO 3M3SH held fixed at mid-intensity (0.5), headspace concentration providing an effective level; for EXPERT RATING: MO 3M3SH held fixed at mid-intensity (0.5 on scale 0-1), rating of degree of malodor reduction at the effective concentration. The method, then: (§1) The effectiveness of perfuming materials in compositions to reduce the perception of, for example, axillary sweat malodors, was evaluated by an expert perfumer by 1) selecting target axillary malodor components, 2) delivering target malodor components and candidate malodor reducing materials to the nose of an expert perfumer at carefully controlled concentrations, 3) having the expert perfumer identify the concentration at which malodor reduction was obtained, and 4) rating the degree of reduction achieved at the concentration identified in step 3.
(§2) In this method, a dynamic multi-channel olfactometer was used to precisely deliver known gas phase concentrations of the test materials, using forced evaporation, into a stream of air emanating from a smelling port. The appropriate concentration of the malodor component was established prior to its being mixed with the candidate malodor reducing substance. The concentration was set at a concentration sufficient to produce an intensity of 0.5 (mid-intensity) on a scale of 0-1. The expert perfumer then dynamically adjusted the concentration of the candidate malodor reducing substance to determine the effective concentration, while maintaining a fixed concentration of the malodor component. Once the appropriate concentration had been determined, the expert perfumer evaluated the perception of the mixtures repeatedly over a period of several minutes, taking breaks in between sniffs to avoid adaptation to the components being tested, before providing a rating.
(§3) Tests were performed in a forced-evaporation, dynamic olfactometer, with malodor component concentrations held fixed at a mid-intensity. Ratings of effectiveness were based in the following scale: −2 (significant increase in malodor), −1 (slight increase in malodor), 0 (no effect), 1 (slight malodor reduction), 2 (good malodor reduction), 3 (complete malodor reduction). The malodor (MO) component abbreviations are 3H3MHA (3-methyl-3-hydroxyhexanoic acid), 3M2HA (3-methyl-2-hexenoic acid), 3M3SH (3-methyl-3-sulphanylhexanol).

The nature of experiment [2]: Expert perfumer evaluation of malodor reduction, dynamic olfactometer, against 3M2HA. On the set-up: species or system human. The note with it: for EFFECTIVE CONCENTRATION: MO 3M2HA held fixed at mid-intensity (0.5), headspace concentration providing an effective level; for EXPERT RATING: MO 3M2HA held fixed at mid-intensity (0.5 on scale 0-1), rating of degree of malodor reduction at the effective concentration. How it is done: as §1, §2, §3

Experiment [3] is described as follows: Expert perfumer evaluation of malodor reduction, dynamic olfactometer, against 3H3MHA. On the set-up: species or system human; key to EXPERT RATING: −2: significant increase in malodor; −1: slight increase in malodor; 0: no effect; 1: slight malodor reduction; 2: good malodor reduction; 3: complete malodor reduction. Conditions: for EFFECTIVE CONCENTRATION: MO 3H3MHA held fixed at mid-intensity (0.5), headspace concentration providing an effective level; for EXPERT RATING: MO 3H3MHA held fixed at mid-intensity (0.5 on scale 0-1), rating of degree of malodor reduction at the effective concentration. How it is done:
The effectiveness of perfuming materials in compositions to reduce the perception of, for example, axillary sweat malodors, was evaluated by an expert perfumer by 1) selecting target axillary malodor components, 2) delivering target malodor components and candidate malodor reducing materials to the nose of an expert perfumer at carefully controlled concentrations, 3) having the expert perfumer identify the concentration at which malodor reduction was obtained, and 4) rating the degree of reduction achieved at the concentration identified in step 3. […] Two surprising results were be observed. The first is that not all tested materials yielded complete malodor reduction, often differing depending on which component they were tested against. […] Intensity and concentration were material-dependent and spanned a wide range of values on both axes. […] Thus, neither the required concentrations, nor performance ratings could be predicted a priori by one skilled in the art, yet are necessary and sufficient for designing malodor reducing compositions for use in perfuming products.
as §2, §3

For `CC(=O)c1ccc2ccccc2c1`, the entries for the “EFFECTIVE CONCENTRATION” value in experiment [1], in experiment [2] and in experiment [3] were 3.42E−02 micrograms/L AIR, 1.37E−02 micrograms/L AIR and 1.37E−02 micrograms/L AIR, respectively. Moreover, the “EXPERT RATING” value in experiment [1] is given as 2; in experiment [2], 3; in experiment [3], 3.
Take “1-(3,3/5,5-dimethyl-1-cyclohexen-1-yl)-4-penten-1-one”: the “EFFECTIVE CONCENTRATION” value is listed as 1.22E+00 micrograms/L AIR in experiment [1], 2.53E−03 micrograms/L AIR in experiment [2] and 1.22E+00 micrograms/L AIR in experiment [3]. For the same molecule, the “EXPERT RATING” value in experiment [1], in experiment [2] and in experiment [3] was 3 throughout.
With `CC(C)=CCCC(C)CC=O` (racemic), in experiment [2], the “EFFECTIVE CONCENTRATION” value was 1.30E−01 micrograms/L AIR and the “EXPERT RATING” value is recorded as 2. In experiment [3], the “EFFECTIVE CONCENTRATION” value is listed as 1.30E−01 micrograms/L AIR and the “EXPERT RATING” value came out at 3.
As for `C/C=C/C(=O)C1C(C)=CCCC1(C)C` (racemic), in experiment [2], the “EFFECTIVE CONCENTRATION” value turned out to be 1.30E−02 micrograms/L AIR and the “EXPERT RATING” value was 2. Besides, in experiment [3], the “EFFECTIVE CONCENTRATION” value came to 1.08E−02 micrograms/L AIR and the “EXPERT RATING” value was 3.
Regarding `Cc1ccc2c(c1)CC(C)(CO)C2` (racemic), the “EFFECTIVE CONCENTRATION” value in experiment [1] amounted to 7.83E−02 micrograms/L AIR; in experiment [2] it was 4.70E−02 micrograms/L AIR; in experiment [3], 3.13E−02 micrograms/L AIR. Moreover, the “EXPERT RATING” value in experiment [1], in experiment [2] and in experiment [3] was 3 each time.
`C=C1CCCC(C)(C)C1C(=O)OC` (racemic) [(+−)-METHYL 2,2-DIMETHYL-6-METHYLIDENECYCLOHEXANECARBOXYLATE]: the “EFFECTIVE CONCENTRATION” value in experiment [1] stood at 4.00E−01 micrograms/L AIR; in experiment [2], 4.00E−01 micrograms/L AIR; in experiment [3], 8.00E−01 micrograms/L AIR. Further, the “EXPERT RATING” value was 2 in experiment [1], 3 in experiment [2] and 3 in experiment [3].
As for `CCOC(=O)[C@@H]1[C@@H](C(C)C)[C@@H]2C=C[C@H]1C2` (racemic) [ETHYL 1RS,2SR,3SR,4SR-3-ISOPROPYLBICYCLO[2.2.1]HEPT-5-ENE-2-CARBOXYLATE], the results for the “EFFECTIVE CONCENTRATION” value in experiment [1], in experiment [2] and in experiment [3] were 2.07E+01 micrograms/L AIR, 2.58E+00 micrograms/L AIR and 1.03E+00 micrograms/L AIR, respectively. In addition, the “EXPERT RATING” value in experiment [1] was determined as 3; in experiment [2], 2; in experiment [3] it was 3.
Regarding `CCCCC[C@H]1C(=O)CC[C@@H]1CC(=O)OC` (racemic) [METHYL 2-((1RS,2RS)-3-OXO-2-PENTYLCYCLOPENTYL)ACETATE], the “EFFECTIVE CONCENTRATION” value in experiment [1] stood at 7.17E−01 micrograms/L AIR; in experiment [2], 7.17E−01 micrograms/L AIR; in experiment [3], 5.73E−01 micrograms/L AIR. For the same molecule, the entries for the “EXPERT RATING” value in experiment [1], in experiment [2] and in experiment [3] were 2, 2 and 3, respectively.
`c1ccc(CCCc2ccccn2)cc1` [2-(3-PHENYLPROPYL)PYRIDINE]: in experiment [2], the “EFFECTIVE CONCENTRATION” value came out at 1.43E−04 micrograms/L AIR and the “EXPERT RATING” value is on record as 3. Also, in experiment [3], the “EFFECTIVE CONCENTRATION” value stood at 1.43E−04 micrograms/L AIR and the “EXPERT RATING” value came to 3.
Turning to `CC/C=C\CC/C=C/C=O` [(2E,6Z)-2,6-NONADIENAL], the “EFFECTIVE CONCENTRATION” value in experiment [1] was found to be 5.67E−04 micrograms/L AIR; in experiment [2] it was 2.83E−03 micrograms/L AIR; in experiment [3], 1.13E−03 micrograms/L AIR. Also, the “EXPERT RATING” value in experiment [1], in experiment [2] and in experiment [3] was 3 in each case.
With `C[C@@H]1C/C=C\CCCCCCCCCC(=O)C1` [(+)-(3R,5Z)-3-METHYL-5-CYCLOPENTADECEN-1-ONE], the entries for the “EFFECTIVE CONCENTRATION” value in experiment [1], in experiment [2] and in experiment [3] were 2.75E−01 micrograms/L AIR, 1.65E−01 micrograms/L AIR and 5.50E−01 micrograms/L AIR, respectively. Besides, the “EXPERT RATING” value in experiment [1], in experiment [2] and in experiment [3] was 2 throughout.
With `C/C=C/c1ccc(OCC)c(O)c1` [(E)-2-ETHOXY-5-(1-PROPENYL)PHENOL], the “EFFECTIVE CONCENTRATION” value in experiment [1] stood at 4.50E−02 micrograms/L AIR; in experiment [2], 1.80E−02 micrograms/L AIR; in experiment [3] it was 4.50E−03 micrograms/L AIR. The “EXPERT RATING” value in experiment [1], in experiment [2] and in experiment [3] was 3 throughout.
Turning to `CCOC(=O)/C=C/c1ccccc1` [ETHYL (E)-3-PHENYL-2-PROPENOATE], in experiment [1], the “EFFECTIVE CONCENTRATION” value is on record as 3.67E−02 micrograms/L AIR and the “EXPERT RATING” value worked out at 2. In experiment [2], the “EFFECTIVE CONCENTRATION” value was 7.33E−02 micrograms/L AIR and the “EXPERT RATING” value was determined as 2.
On to `COC(=O)c1c(C)cc(O)c(C)c1O` [METHYL 2,4-DIHYDROXY-3,6-DIMETHYLBENZOATE], for which, in experiment [1], the “EFFECTIVE CONCENTRATION” value came to 3.50E−03 micrograms/L AIR and the “EXPERT RATING” value is on record as 3. Besides, in experiment [2], the “EFFECTIVE CONCENTRATION” value is recorded as 3.50E−03 micrograms/L AIR and the “EXPERT RATING” value is recorded as 3.
For the molecule `CCCCCC#CC(=O)OC` [METHYL 2-OCTYNOATE], in experiment [1], the “EFFECTIVE CONCENTRATION” value was determined as 4.67E−01 micrograms/L AIR and the “EXPERT RATING” value came out at 3. Besides, in experiment [2], the “EFFECTIVE CONCENTRATION” value is recorded as 4.67E−01 micrograms/L AIR and the “EXPERT RATING” value was 3.
In the case of `COC(=O)/C=C/c1ccccc1` [METHYL (E)-3-PHENYL-2-PROPENOATE], in experiment [1], the “EFFECTIVE CONCENTRATION” value is given as 9.33E−02 micrograms/L AIR and the “EXPERT RATING” value is reported as 2. In addition, in experiment [2], the “EFFECTIVE CONCENTRATION” value was found to be 7.00E−02 micrograms/L AIR and the “EXPERT RATING” value is 3.
On to `CCCCCCCC=O` [OCTANAL], for which the “EFFECTIVE CONCENTRATION” value is recorded as 3.08E−01 micrograms/L AIR in experiment [1] and 6.17E−01 micrograms/L AIR in experiment [2]. Moreover, the “EXPERT RATING” value in experiment [1] worked out at 2; in experiment [2], 3.
For `Cc1ccc(C(C)C)c(O)c1` [THYMOL], in that order: 1.03E−01 micrograms/L AIR, 5.17E−02 micrograms/L AIR, 3 and 3.
In the same order, the values of `CCCCCCCCCCC=O` [UNDECANAL] are 2.17E−01 micrograms/L AIR, 5.42E−02 micrograms/L AIR, 3 and 3.
For the molecule “(+−)-(3E)-4-(2,6,6-trimethyl-1/2-cyclohexen-1-yl)-3-buten-2-one”, the entries for the “EFFECTIVE CONCENTRATION” value in experiment [1], in experiment [2] and in experiment [3] were 8.00E−01 micrograms/L AIR, 4.00E−01 micrograms/L AIR and 2.00E−01 micrograms/L AIR, respectively. Besides, the “EXPERT RATING” value in experiment [1] is reported as 2; in experiment [2], 3; in experiment [3], 3.
With “TRICYCLO[5.2.1.0(2,6)]DEC-3/4-EN-8-YL PROPANOATE”, the “EFFECTIVE CONCENTRATION” value came out at 1.42E−01 micrograms/L AIR in experiment [1] and 7.08E−02 micrograms/L AIR in experiment [2]. For the same molecule, the “EXPERT RATING” value was determined as 2 in experiment [1] and 3 in experiment [2].
